Measured values taken from patent publication US20230382863A1, “MEK INHIBITORS AND USES THEREOF” (Ikena Oncology, Inc., priority 2022, published 2023).

Legend:
pERK HCT-116 (G13D) = pERK HCT-116 (G13D) ICW (4 hour); type: cell-based; conditions: Homo sapiens, read-out: pERK HCT-116 (G13D) ICW (4 hour): Average IC50 (nM)
[1] = test system: NCI-H2122 xenograft (KRAS G12C); assay: In vivo efficacy, NCI-H2122 xenograft model; design: species or system mouse; conditions: 3 mg/kg QD, Day 31
Method: The antitumor activity of exemplary MEK inhibitor compounds is evaluated in vivo using human cell line derived xenografts (CDX) grown in immunodeficient mice. For these studies, AsPC1 (pancreatic cell line with KRAS G12D mutation), NCI-H2122 (lung cell line with KRAS G12C mutation), and 5637 (bladder cell line with CRAF amplification) models are used. In addition, HCT-116 (colorectal cell line with KRAS G13D mutation), SKM-1 (AML cell line with KRAS K117N mutation), and OCI-AML-3 (AML cell line with NRAS Q61L mutation) models are used. The tumor cell lines (AsPC-1, NCI-H2122, 5637, and HCT-116 cells) are maintained in vitro as monolayer culture in medium at 37° C. in an atmosphere of 5% CO2 in air. The tumor cell lines (SKM-1 and OCI-AML-3 cells) are maintained in vitro as a suspension in medium at 37° C. in an atmosphere of 5% CO2 in air. The tumor cells are routinely sub-cultured before confluence by trypsin-EDTA treatment, not to exceed 4-5 passages. The cells growing in an exponential growth phase are harvested for tumor inoculation. AsPC1, NCI-H2122, and OCI-AML-3 tumors are implanted into Balb/c nude mice. HCT-116 tumors are implanted into Nu/Nu mice. 5637 and SKM-1 tumors are implanted into NOG mice. […] Throughout the study, mouse body weight and tumor volume are recorded. The measurement of tumor size is conducted twice weekly with a caliper and recorded. […]

[2] = test system: OCI-AML-3 xenograft (NRAS Q61L); assay: In vivo efficacy, OCI-AML-3 xenograft model; design: species or system mouse; conditions: OCI-AML-3 model, Day 15
Method: (§1) The antitumor activity of exemplary MEK inhibitor compounds is evaluated in vivo using human cell line derived xenografts (CDX) grown in immunodeficient mice. For these studies, AsPC1 (pancreatic cell line with KRAS G12D mutation), NCI-H2122 (lung cell line with KRAS G12C mutation), and 5637 (bladder cell line with CRAF amplification) models are used. In addition, HCT-116 (colorectal cell line with KRAS G13D mutation), SKM-1 (AML cell line with KRAS K117N mutation), and OCI-AML-3 (AML cell line with NRAS Q61L mutation) models are used. The tumor cell lines (AsPC-1, NCI-H2122, 5637, and HCT-116 cells) are maintained in vitro as monolayer culture in medium at 37° C. in an atmosphere of 5% CO2 in air. The tumor cell lines (SKM-1 and OCI-AML-3 cells) are maintained in vitro as a suspension in medium at 37° C. in an atmosphere of 5% CO2 in air. The tumor cells are routinely sub-cultured before confluence by trypsin-EDTA treatment, not to exceed 4-5 passages. The cells growing in an exponential growth phase are harvested for tumor inoculation. AsPC1, NCI-H2122, and OCI-AML-3 tumors are implanted into Balb/c nude mice. HCT-116 tumors are implanted into Nu/Nu mice. 5637 and SKM-1 tumors are implanted into NOG mice. Each mouse is inoculated subcutaneously on the right flank with tumor cells in a 1:1 mixture with matrigel. Tumors are allowed to grow to approximately 150-200 mm^3. At this time, mice are assigned to groups such that the mean tumor volume is the same for each treatment group. The MEK inhibitor compound treatments are administrated to the tumor-bearing mice via oral gavage. Throughout the study, mouse body weight and tumor volume are recorded. The measurement of tumor size is conducted twice weekly with a caliper and recorded. The tumor volume (mm^3) is estimated using the formula: TV=a×b^2/2, where “a” and “b” are long and short diameters of a tumor, respectively.

[3] = Cassette pharmacokinetics studies in mice; type: in vivo; conditions: male, Balb/c, plasma, Mouse
How it was run: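 Male Balb/c mice (3 per route) received cassette doses in 5% DMSO/95% PEG400 at 2 mg/kg IV (1 mg/kg where IV*) or 5 mg/kg PO. Plasma sampled to 24 h, acetonitrile-precipitated with internal standard, quantified by HPLC/MS/MS against 0.5-1,000 ng/mL standards.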

[4] = test system: Phosphorylation of MEK1/2 in AsPC1 cells; assay: 4 hour pMEK1/2 MSD Assay; type: cell-based; conditions: Homo sapiens; AsPC1, 4 hours; read-out: pMEK IC50
Method: AsPC1 cells were seeded at 10,000 cells/well overnight in 96-well plates, then treated with a 12-point dose response of compounds (Starting dose of 1000 nM and 3-fold dilution) for 4 hours. AsPC1 cells are a K-Ras mutant (G12D) pancreatic cancer cell line. Phosphorylation of MEK1/2 on residues Ser217 and Ser221 were detected using a MesoScale Discovery (MSD) assay (MSD Cat #K15129D-2). MEK1/2 phosphorylation levels were normalized to total MEK1/2 protein detected in each well on the same MSD plate. IC50 values were determined by fitting a variable slope, four parameters curve to the compound concentration to normalized Phospho-MEK1/2 relationship.

Pharmacokinetics in rat = type: in vivo; conditions: plasma, IV, 1 mg/kg
[5] = test system: HCT-116 xenograft (KRAS G13D); assay: In vivo efficacy, HCT-116 xenograft model; design: species or system mouse; conditions: HCT-116 model, Day 20
Method: as §1

CRAF in complex with MEK = assay: CRAF-MEK stabilization in cells (MEK immunoprecipitation, Western); type: cell-based; conditions: HCT-116 and NCI-H1666 cells, 3 nM, 4 hours
From the text: The stabilization of ARAF, BRAF and CRAF in complex with MEK in MEK immunoprecipitates isolated from cellular lysates. For these studies, HCT-116 (colorectal cell line with KRAS G13D mutation), SKMEL-2 (melanoma cell line with NRAS Q61K mutation), HT-29 (colorectal cell line with BRAF Class I mutation), NCI-H1755 (lung cancer cell line with BRAF Class II mutation), and NCI-H1666 (lung cancer cell line with BRAF Class III mutation) models are used. The tumor cell lines are maintained in vitro as monolayer culture in medium at 37° C. in an atmosphere of 5% CO2 in air. Cell lines are treated with exemplary MEK inhibitors at a concentration of 3 nM for 4 hours. Cells are lysed and MEK is immunoprecipitated from the lysates overnight. Denatured immunoprecipitates are run on SDS-PAGE, transferred to nitrocellulose membranes and associated ARAF, BRAF, or CRAF are detected by Western analysis. Stabilization was defined as >1.5-fold induction of RAF-MEK interaction over vehicle control.

With CNS(=O)(=O)Nc1cccc(Oc2c(C(=O)NC3CC3)c(Nc3ccc(I)cc3F)n(C)c(=O)c2C)c1Cl [Compound I-2, 4-(2-chloro-3-((N-methylsulfamoyl)amino)phenoxy)-N-cyclopropyl-2-((2-fluoro-4-iodophenyl)amino)-1,5-dimethyl-6-oxo-1,6-dihydropyridine-3-carboxamide] the IC50 (pERK HCT-116 (G13D)) was < 100 nM, the “average body weight loss” value [1] was 1.5% and the “percent TGI” value [1] was 104%. The “average body weight loss” value ([2]; 1 mg/kg QD) was 2.9%, the “percent TGI” value ([2]; 1 mg/kg QD) was 94.8% and the “average body weight loss” value ([2]; 3 mg/kg QD) was 7.8%. The “percent TGI” value ([2]; 3 mg/kg QD) was 98.6%, the “percent TGI” value ([2]; 6 mg/kg QOD) was 95.2% and the weight gain ([2]; 6 mg/kg QOD) was 3.3%. The AUC(0-inf) ([3]; IV, 2 mg/kg) was 1950 ng·h/mL, the AUC(0-t) ([3]; IV, 2 mg/kg) was 1940 ng·h/mL and the clearance ([3]; IV, 2 mg/kg) was 17.2 mL/min/kg. It also gave a half-life ([3]; IV, 2 mg/kg) of 62.4 min, a Vd ([3]; IV, 2 mg/kg, read-out: Vdss) of 1.3 L/kg and an AUC(0-inf) ([3]; PO, 5 mg/kg) of 4040 ng·h/mL. It also gave an AUC(0-t) ([3]; PO, 5 mg/kg) of 3960 ng·h/mL, a Cmax ([3]; PO, 5 mg/kg) of 1660 ng/mL and a Tmax ([3]; PO, 5 mg/kg) of 30 min. The half-life ([3]; PO, 5 mg/kg) was 479 min, the IC50 [4] was < 100 nM and the AUC(0-inf) (Pharmacokinetics in rat) was 1080 ng·h/mL. It also gave an AUC(0-t) (Pharmacokinetics in rat) of 1070 ng·h/mL, a clearance (Pharmacokinetics in rat) of 16.6 mL/min/kg and a half-life (Pharmacokinetics in rat) of 253 min. For the same compound, the Vd (Pharmacokinetics in rat; read-out: Vdss) was 2.2 L/kg, the “average body weight gain” value ([5]; 2 mg/kg QD) was 4% and the “percent TGI” value ([5]; 2 mg/kg QD) was 102.9%. For the same compound, the “average body weight gain” value ([5]; 3 mg/kg QOD) was 5.5%, the “percent TGI” value ([5]; 3 mg/kg QOD) was 98.1% and the “average body weight gain” value ([5]; 6 mg/kg QOD) was 12.1%. The “percent TGI” value ([5]; 6 mg/kg QOD) was 98% and the “MEK inhibitor-induced MEK-CRAF stabilization” value (CRAF in complex with MEK) was “stabilization was observed”.
